Measured values from patent publication US8354399B2, “Substituted indazole derivatives active as kinase inhibitors” (Nerviano Medical Sciences S.R.L., priority 2008, dated 2013).

Experiments:
ALK = target: T1, ALK (Homo sapiens, UniProt Q9UM73); assay: Biochemical assay for inhibitors of ALK kinase activity
T1 construct: made in house; host or cells: Sf21 insect cells (baculovirus)
Text: Preparation of ALK Cytoplasmic Domain for Use in Biochemical Assay
ALK cytoplasmic domain, corresponding to the residue 1060-1620 (the numbers of the amino acid residues refer to the Genbank accession number NP 004295.2) was PCR amplified from a human testis cDNA library.
For cloning purposes, the oligonucleotides included attB sites in order to obtain an attB-flanked PCR product suitable for cloning using the Gateway technology (Invitrogen). Furthermore, for purification purposes, forward primer included a PreScission cleavage site (Amersham Biosciences). The resulting PCR product was cloned in the baculovirus expression vector pVL1393 (Invitrogen) Gateway-modified. For expression and purification purpose, a GST tag was added N-terminal to the ALK cytoplasmic domain. Cloning was performed according to the protocols described in the Gateway manual (Invitrogen).
Biochemical Assay for Inhibitors of ALK Kinase Activity
ALK enzyme needs pre-activation in order to linearize reaction kinetics.
Kinase buffer was composed of 50 mM HEPES pH 7.5 containing 1 mM MnCl2, 5 mM MgCl2, 1 mM DTT, 3 microM Na3VO4, and 0.2 mg/mL BSA. 3× KB is buffer of the same composition and pH as KB, but with three times the concentration of each component.
The kinase assay was run with a final enzyme concentration of 20 nM, in the presence of 8 microM ATP, 1 nM ^33P-γ-ATP and 2 microM MBP. The MPB was purchased from Sigma-Aldrich, St. Louis, Mo., USA.

JAK2 = target: T2, JAK2 (Homo sapiens, UniProt O60674); assay: Biochemical assay for inhibitors of JAK2 kinase activity
T2 construct: The assay has been performed using the commercially available JAK2 kinase domain; purchased Invitrogen, Eugene, Oreg
T2 sequence (O60674 849-1124 limits assumed): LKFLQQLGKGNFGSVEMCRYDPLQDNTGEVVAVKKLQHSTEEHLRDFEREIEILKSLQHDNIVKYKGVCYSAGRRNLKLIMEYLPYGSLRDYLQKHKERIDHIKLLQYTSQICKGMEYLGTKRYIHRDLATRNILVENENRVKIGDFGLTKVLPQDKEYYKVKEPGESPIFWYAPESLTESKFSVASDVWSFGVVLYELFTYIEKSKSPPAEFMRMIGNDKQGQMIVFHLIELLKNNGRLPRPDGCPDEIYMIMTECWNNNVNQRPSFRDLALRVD
Text: Biochemical Assay for Inhibitors of JAK2 Kinase Activity
General Principle—A specific JAK2 peptide substrate is trans-phosphorylated by JAK2 kinase in the presence of ATP traced with ^33P-γ-ATP. At the end of the phosphorylation reaction, 98% of the cold and radioactive ATP is captured by an excess of dowex ion exchange resin that eventually settles by gravity to the bottom of the reaction plate. The supernatant is subsequently withdrawn and transferred into a counting plate that is then evaluated by β-counting.
JAK2 Kinase Buffer (KB—Kinase buffer was composed of 50 mM HEPES pH 7.5 containing 10 mM MgCl2, 2.5 mM DTT, 10 microM Na3VO4, and 0.2 mg/mL BSA. 3× KB is buffer of the same composition and pH as KB, but with three times the concentration of each component.
Assay conditions—The JAK2 kinase assay was run with a final enzyme concentration of 1 nM, in the presence of 60 microM ATP, 3 nM 33P-γ-ATP and 64 microM of substrate Jaktide (Aminoacid sequence: LPLDKDYYVVREPGQ). The Jaktide was purchased from American Peptide Company (Sunnyvale, Calif.).
Compound Dilution—For IC50 determination, test compounds are received as a 1 mM solution in 100% DMSO, distributed into 96 well plates: compounds are then plated into the first column of a microtiter plate (A1 to G1), 100 μl/well. […]
Another mixing cycle is performed after all the plates are stopped, this time using normal tips: the plates are then allowed to rest for about one hour in order to maximize ATP capture. At this point, 27 μl of the supernatant are transferred into 384-Optiplates (Perkin-Elmer), with 50 μl of Microscint 40 (Perkin-Elmer); after 5 min of orbital shaking the plates are read on a Perkin-Elmer Top Count radioactivity counter.
Data Fitting—Data are analyzed by an internally customized version of the SW package “Assay Explorer” that provides sigmoidal fitting of the ten-dilutions curves for IC50 determination in the secondary assays/hit confirmation routines.

IGF-1R = target: T3, IGF-1R (Homo sapiens, UniProt P08069); assay: Biochemical assay for inhibitors of IGF-1R kinase activity
T3 construct: amino acid residues 960-1367 of precursor protein; made in house; host or cells: H5 insect cells (baculovirus; virus generated in Sf21)
T3 sequence (P08069 960-1367): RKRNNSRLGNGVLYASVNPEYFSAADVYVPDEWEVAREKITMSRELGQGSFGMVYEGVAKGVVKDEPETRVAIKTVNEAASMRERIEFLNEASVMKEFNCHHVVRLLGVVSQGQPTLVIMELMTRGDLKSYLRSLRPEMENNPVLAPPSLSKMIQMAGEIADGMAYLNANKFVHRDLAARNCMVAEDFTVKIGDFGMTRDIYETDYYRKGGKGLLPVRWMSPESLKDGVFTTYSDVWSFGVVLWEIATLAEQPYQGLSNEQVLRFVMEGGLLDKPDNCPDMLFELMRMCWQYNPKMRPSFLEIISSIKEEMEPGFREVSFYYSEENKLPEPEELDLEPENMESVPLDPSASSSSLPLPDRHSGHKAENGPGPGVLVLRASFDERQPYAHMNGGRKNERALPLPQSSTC
Protocol: Preparation of IGF-1R for Use in Biochemical Assay
Human cDNA was used as template for amplification by polymerase chain reaction (PCR) of the predicted cytoplasmic portion of IGF-1R (amino acid residues 960-1367 of precursor protein; see NCBI Entrez Protein Accession #P08069) which includes the entire kinase domain. PCR was conducted using the forward primer sequence
Biochemical Assay for Inhibitors of IGF-1R Kinase Activity
The inhibitory activity of putative kinase inhibitors and the potency of selected compounds were determined using a trans-phosphorylation assay.
A specific substrate was incubated with the kinase in appropriate buffer conditions in the presence of ATP traced with ^33P-γ-ATP (gamma phosphate-labeled, Redivue™ Code Number AH9968, 1000-3000Ci/mmole, Amersham Biosciences Piscataway, N.J., USA), optimal cofactors and test compound.
At the end of the phosphorylation reaction, more than 98% cold and radioactive ATP were captured by an excess of Dowex ion exchange resin. The resin was allowed to settle to the bottom of reaction wells by gravity. Supernatant, containing substrate peptide, was subsequently withdrawn and transferred into a counting plate, and radioactivity (corresponding to phosphate incorporated into peptide) was evaluated by β-counting.
Kinase buffer was composed of 50 mM HEPES pH 7.9 containing 3 mM MnCl2, 1 mM DTT, 3 microM Na3VO4, and 0.2 mg/mL BSA. 3× KB is buffer of the same composition and pH as KB, but with three times the concentration of each component.
Prior to starting the kinase inhibition assay, IGF-1R was pre-phosphorylated in order to linearize reaction kinetics. To achieve this, the desired total quantity of enzyme was prepared at an enzyme concentration of 360 nM in KB containing 100 microM ATP, and this preparation was incubated for 30 min at 28° C. 3× Enzyme Mix was obtained by diluting this preactivated enzyme 20-fold in 3× KB. […]

T1 sequence (Q9UM73 1060-1620): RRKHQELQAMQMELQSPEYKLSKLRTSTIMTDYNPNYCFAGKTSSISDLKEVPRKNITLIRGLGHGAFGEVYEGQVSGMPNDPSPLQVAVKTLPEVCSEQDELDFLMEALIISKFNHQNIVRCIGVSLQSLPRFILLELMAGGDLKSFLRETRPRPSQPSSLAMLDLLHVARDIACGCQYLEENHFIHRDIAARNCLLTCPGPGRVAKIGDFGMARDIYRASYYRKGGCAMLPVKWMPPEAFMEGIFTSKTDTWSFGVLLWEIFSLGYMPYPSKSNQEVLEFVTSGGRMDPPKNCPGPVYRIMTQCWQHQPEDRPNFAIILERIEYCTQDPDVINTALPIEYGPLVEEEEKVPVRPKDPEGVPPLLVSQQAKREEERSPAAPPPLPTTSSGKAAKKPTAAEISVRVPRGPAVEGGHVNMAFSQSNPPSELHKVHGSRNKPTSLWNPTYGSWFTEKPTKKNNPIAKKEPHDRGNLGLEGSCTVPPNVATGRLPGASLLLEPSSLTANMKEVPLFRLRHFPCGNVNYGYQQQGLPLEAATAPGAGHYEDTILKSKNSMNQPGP

| IC50 (ALK) | IC50 (JAK2) | IC50 (IGF-1R) | Structure (SMILES) |
| --- | --- | --- | --- |
| 0.01 µM | 0.01 µM | 0.2 µM | CN1CCN(c2ccc(C(=O)Nc3n[nH]c4ccc(OCc5cc(F)cc(F)c5)cc34)c(NCCF)c2)CC1 [Cpd. 36, N-{5-[(3,5-difluorobenzyl)oxy]-1H-indazol-3-yl}-2-[(2-fluoroethyl)amino]-4-(4-methylpiperazin-1-yl)benzamide] |
| 1.87 µM | 0.22 µM | > 10 µM | O=C(Nc1n[nH]c2ccc(OCc3cc(F)cc(F)c3)cc12)c1ccccc1 [Ref. compound, reference compound] |
| 0.02 µM | 0.02 µM | 0.14 µM | CN1CCN(c2ccc(C(=O)Nc3n[nH]c4ccc(OCc5cc(F)cc(F)c5)cc34)c(NC3CCOCC3)c2)CC1 [Cpd. 8, N-{5-[(3,5-difluorobenzyl)oxy]-1H-indazol-3-yl}-4-(4-methylpiperazin-1-yl)-2-(tetrahydro-2H-pyran-4-ylamino)benzamide] |
